Numbered stars: 1 amine (or outer) side, 2 acyl side, 3 side chain; on linkers, the order of the positions; unused ones are H or OH. Bridge positions count the residues as written; N and C are the ends. Square brackets hold non-standard residues; d marks the D form. Side chains are listed from the residue outwards. Ends that are not written are not given here. * marks the point of attachment. C18 diacid = O=C(O)CCCCCCCCCCCCCCCCC(=O)*; γGlu = O=C(O)[C@H](CCC(=O)[*:2])N[*:1]; αMeF = C[C@](N)(Cc1ccccc1)C(=O)O
System: DIO rats
Assay: Example 7: 28-day LAA and GLP/GIP dual agonist study
Format: in vivo, rat
Description: Study Design: Male rats were fed a high-fat diet (45% kcal fat-D12451; Research Diets) or chow control matched diet (10% kcal fat-D12450K; […] Control rats were dosed SC with Vehicle. Body weight was monitored daily through-out study and body composition measured by EchoMRI at baseline (week-1) and end of study (week 4). […]

K(γE-γE-C18diacid)[CNTATC]ATQRLANFLRHSSNN(αMePhe)GPILPPTEVGSNTY-amide (K([γGlu-γGlu-C18 diacid])CNTATCATQRLANFLRHSSNN[αMeF]GPILPPTEVGSNTY-NH2; disulfide 2-7) [LAA]
body weight change (day 28, mono-treatment 10 nmol/kg SC QD): −5.6% | change in fat mass (g) (end of study (week 4), EchoMRI, FIG. 6C): significant decrease in fat mass | change in lean mass (g) (end of study, EchoMRI, mono-treatment, FIG. 6D): no effect on lean mass
